Assay results taken from patent US10624871B2, “Bismuth(III) compounds and methods thereof” (priority 2016, dated 2020).

Legend:
E. coli (NDM-1+) = test: Murine peritonitis infection model; type: in vivo, BALB/c mice; details: MER (5 mg kg^−1) co-administered with CBS (20 mg kg^−1), i.p., day 4 post infection
Experimental: FIG. 15 is a survival curve showing efficacies in a murine peritonitis infection model. BALB/c mice were infected by a lethal dose of E. coli clinical isolate (NDM-1) via i.p. injection and treated with one dose and 4 h post infection, followed by twice-daily treatment via i.p. injection. Five groups of mice were treated with MER (5 mg kg^−1), CBS (20 mg kg^−1), the combination of MER (5 mg kg^−1) and CBS (20 mg kg^−1), CBS (20 mg kg^−1, in the absence of bacteria) and PBS, respectively. P<0.001, Mantel-Cox test.
Briefly, an overnight culture of E. coli (NDM-1^+) was performed 1:250 dilution in 50 mL LB broth and re-grew to about OD of 0.3 in a 250-mL flask after 2.5 hrs shaking at 37° C., 250 rpm. The resulting bacterial pellets were collected and washed by PBS three times for further use. For bacterial infection, mice (female BALB/c strain, 6-8 weeks of age, 18-22 g of weight) were induced intraperitoneally (i.p.) with a dose of 10^5 CFU bacteria in a 400 μL aliquot of PBS supplemented with 2% mucin. 4 groups of mice were i.p. administered 4 hrs post-infection with a 100 μL aliquot of PBS, MER, CBS and a combination of MER and CBS, respectively. Body weights and mice survival were monitored for endpoint until day 4 post infection.

C. freundii (NDM-1+) = test: Microdilution MIC and MBC assay, FICI; type: cell-based; details: Bi(III) compound at 32 μg mL^−1, C. feudii (NDM-1+)

**Q.** For `O=C([O-])CC([O-])(CC(=O)[O-])C(=O)[O-].O=C([O-])CC([O-])(CC(=O)[O-])C(=O)[O-].[Bi+3].[Bi+3].[K+]` [Complex 10, colloidal bismuth subcitrate], which “survival rate at the endpoint of experiment” value (E. coli (NDM-1+)) is on record?
**A.** Its value is 50%.

**Q.** And the “MBC of MER with Bi(III) compound” value (C. freundii (NDM-1+))?
**A.** Its value is 1 µg/mL.

**Q.** And the “MIC of MER with Bi(III) compound” value (C. freundii (NDM-1+))?
**A.** The value was 0.5 µg/mL.
